Earlier results on 2 sequences are cited in patent US10414795B2, “Techniques of preparing collagen active peptides” (Technical Institute of Physics and Chemistry, Chinese …, priority 2016, dated 2019).

As usually defined, the IC50 is the concentration that inhibits the measured activity by half.

This series deals with human breast cancer cell line MCF-7. The following applies: read-out: IC50, dose-dependent inhibition effect.

Turning to “PTAEGVYMVT [Pro-Thr-Ala-Glu-Gly-Val-Tyr-Met-Val-Thr, anticancer peptide (1124 Da) from tuna dark muscle byproduct hydrolysate]”, the 50% inhibitory concentration (IC50) is 8.8 µM. In the case of “LPHVLTPEAGAT [Leu-Pro-His-Val-Leu-Thr-Pro-Glu-Ala-Gly-Ala-Thr, anticancer peptide (1206 Da) from tuna dark muscle byproduct hydrolysate]”, the concentration for half-maximal inhibition (IC50) is 8.1 µM.
